Measured values published in PubChem BioAssay (NCI).
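Protocol summary: plate cells (96-well), add compound at 5 concentrations, incubate 48 h, interpolate endpoints linearly. TGI marks complete inhibition of growth.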

Assays:
Assay in all cases: inhibition of tumour cell growth, NCI panel, 48 h
[1] = tested on: A498 renal
[2] = tested on: HCT-116 colon
[3] = tested on: CAKI-1 renal
[4] = tested on: SF-268 CNS
[5] = tested on: HL-60(TB) leukemia
[6] = tested on: HOP-18 NSCLC
[7] = tested on: HT29 colon
[8] = tested on: HOP-62 NSCLC
[9] = tested on: HCT-15 colon
[10] = tested on: UACC-257 melanoma
[11] = tested on: DMS 114 small cell lung
[12] = tested on: NCI-H522 lung
[13] = tested on: ACHN renal
[14] = tested on: MALME-3M melanoma
[15] = tested on: SK-MEL-2 melanoma
[16] = tested on: NCI-H460 lung
[17] = tested on: UO-31 renal
[18] = tested on: SK-OV-3 ovarian
[19] = tested on: EKVX NSCLC
[20] = tested on: A549 NSCLC
[21] = tested on: SNB-19 CNS
[22] = tested on: CCRF-CEM leukemia
[23] = tested on: KM12 colon
[24] = tested on: TK-10 renal
[25] = tested on: MOLT-4 leukemia
[26] = tested on: RPMI-8226 leukemia
[27] = tested on: LXFL 529 NSCLC
[28] = tested on: SW-620 colon
[29] = tested on: SK-MEL-5 melanoma
[30] = tested on: K-562 leukemia
[31] = tested on: 786-0 renal
[32] = tested on: DLD-1 colon
[33] = tested on: OVCAR-3 ovarian
[34] = tested on: IGROV1 ovarian
[35] = tested on: SF-295 CNS
[36] = tested on: SNB-78 CNS
[37] = tested on: KM20L2 colon
[38] = tested on: NCI-H226 lung
[39] = tested on: SN12C renal
[40] = tested on: SF-539 CNS
[41] = tested on: RXF 393 renal
[42] = tested on: M14 melanoma
[43] = tested on: NCI-H23 lung
[44] = tested on: RXF-631 renal
[45] = tested on: XF 498 CNS
[46] = tested on: SR leukemia
[47] = tested on: LOX IMVI melanoma
[48] = tested on: UACC-62 melanoma
[49] = tested on: SNB-75 CNS
[50] = tested on: SK-MEL-28 melanoma
[51] = tested on: COLO 205 colon
[52] = tested on: OVCAR-4 ovarian
[53] = tested on: DMS 273 small cell lung
[54] = tested on: HCC-2998 colon
[55] = tested on: OVCAR-8 ovarian
[56] = tested on: U251 CNS
[57] = tested on: HOP-92 NSCLC
[58] = tested on: M19-MEL melanoma
[59] = tested on: DU-145 prostate
[60] = tested on: BT-549 breast
[61] = tested on: MDA-MB-435
[62] = tested on: MCF7 breast
[63] = tested on: NCI/ADR-RES ovarian
[64] = tested on: PC-3 prostate
[65] = tested on: MDA-N
[66] = tested on: HS 578T breast
[67] = tested on: T-47D breast
[68] = tested on: OVCAR-5 ovarian
[69] = tested on: MDA-MB-231 breast

Compound: O=[N+]([O-])c1ccc(N=Nc2c(O)[nH]c3ccc(Br)cc23)cc1
- TGI [1]: 49.1 µM
- TGI [2]: 80.1 µM
- TGI [3]: > 58.4 µM
- TGI [4]: 34.8 µM
- TGI [5]: 25.2 µM
- TGI [6]: 40.6 µM
- TGI [7]: > 100 µM
- TGI [8]: 33.8 µM
- TGI [9]: > 74.3 µM
- TGI [10]: 43.4 µM
- TGI [11]: 47.7 µM
- TGI [12]: > 87.7 µM
- TGI [13]: 42.7 µM
- TGI [14]: 58 µM
- TGI [15]: 99.2 µM
- TGI [16]: > 46.5 µM
- TGI [17]: > 73.5 µM
- TGI [18]: 45.6 µM
- TGI [19]: 58.9 µM
- TGI [20]: 44.9 µM
- TGI [21]: 36.6 µM
- TGI [22]: > 49.1 µM
- TGI [23]: > 100 µM
- TGI [24]: 36 µM
- TGI [25]: > 51.7 µM
- TGI [26]: 45.6 µM
- TGI [27]: > 68.7 µM
- TGI [28]: > 100 µM
- TGI [29]: > 68 µM
- TGI [30]: > 43 µM
- TGI [31]: 25.2 µM
- TGI [32]: > 46.8 µM
- TGI [33]: 45.9 µM
- TGI [34]: > 53.2 µM
- TGI [35]: 25 µM
- TGI [36]: 42.3 µM
- TGI [37]: > 100 µM
- TGI [38]: 37.2 µM
- TGI [39]: > 31.6 µM
- TGI [40]: 32.1 µM
- TGI [41]: 35.6 µM
- TGI [42]: > 52.8 µM
- TGI [43]: > 51.3 µM
- TGI [44]: 33 µM
- TGI [45]: 53.7 µM
- TGI [46]: > 53.9 µM
- TGI [47]: 48.8 µM
- TGI [48]: > 51.2 µM
- TGI [49]: > 48.1 µM
- TGI [50]: 32.9 µM
- TGI [51]: > 68.7 µM
- TGI [52]: 33.4 µM
- TGI [53]: 24 µM
- TGI [54]: > 100 µM
- TGI [55]: 28.3 µM
- TGI [56]: 38.2 µM
- TGI [57]: 26.5 µM
- TGI [58]: 34.7 µM

Compound: O=C1CCC(C(=O)O)C2=C1CCCC2 (configuration not stated)
- TGI [1]: > 100 µM
- TGI [2]: > 100 µM
- TGI [3]: > 100 µM
- TGI [4]: > 100 µM
- TGI [59]: > 100 µM
- TGI [60]: > 100 µM
- TGI [5]: > 100 µM
- TGI [6]: > 100 µM
- TGI [7]: > 100 µM
- TGI [8]: > 100 µM
- TGI [9]: > 100 µM
- TGI [10]: > 100 µM
- TGI [11]: > 100 µM
- TGI [12]: > 100 µM
- TGI [13]: > 100 µM
- TGI [14]: > 100 µM
- TGI [15]: > 100 µM
- TGI [61]: > 100 µM
- TGI [62]: > 100 µM
- TGI [16]: > 100 µM
- TGI [17]: > 100 µM
- TGI [63]: > 100 µM
- TGI [18]: > 100 µM
- TGI [19]: > 100 µM
- TGI [20]: > 100 µM
- TGI [64]: > 100 µM
- TGI [21]: > 100 µM
- TGI [22]: > 100 µM
- TGI [23]: > 100 µM
- TGI [24]: > 100 µM
- TGI [25]: > 100 µM
- TGI [26]: > 100 µM
- TGI [27]: > 100 µM
- TGI [28]: > 100 µM
- TGI [29]: > 100 µM
- TGI [30]: > 100 µM
- TGI [31]: > 100 µM
- TGI [32]: > 100 µM
- TGI [33]: > 100 µM
- TGI [65]: > 100 µM
- TGI [34]: > 100 µM
- TGI [35]: > 100 µM
- TGI [36]: > 100 µM
- TGI [37]: > 100 µM
- TGI [66]: > 100 µM
- TGI [38]: > 21.5 µM
- TGI [39]: > 100 µM
- TGI [40]: > 100 µM
- TGI [41]: > 100 µM
- TGI [42]: > 100 µM
- TGI [43]: > 100 µM
- TGI [44]: > 100 µM
- TGI [45]: > 100 µM
- TGI [46]: > 100 µM
- TGI [47]: > 100 µM
- TGI [67]: > 100 µM
- TGI [68]: > 100 µM
- TGI [69]: > 100 µM
- TGI [48]: > 100 µM
- TGI [49]: > 100 µM
- TGI [50]: > 100 µM
- TGI [51]: > 100 µM
- TGI [52]: > 100 µM
- TGI [53]: > 100 µM
- TGI [54]: > 100 µM
- TGI [55]: > 100 µM
- TGI [56]: > 29.8 µM
- TGI [57]: > 100 µM
- TGI [58]: > 100 µM

Compound: Nc1nc(-c2ccccc2)cc(-c2ccccc2O)n1
- TGI [1]: > 100 µM
- TGI [2]: 49 µM
- TGI [3]: > 100 µM
- TGI [4]: > 100 µM
- TGI [5]: 43.5 µM
- TGI [6]: > 100 µM
- TGI [7]: > 100 µM
- TGI [8]: 74.9 µM
- TGI [10]: > 100 µM
- TGI [11]: > 100 µM
- TGI [12]: > 100 µM
- TGI [13]: > 100 µM
- TGI [14]: > 100 µM
- TGI [16]: > 100 µM
- TGI [17]: 28.7 µM
- TGI [18]: > 100 µM
- TGI [19]: > 100 µM
- TGI [20]: > 100 µM
- TGI [21]: > 100 µM
- TGI [22]: > 100 µM
- TGI [23]: 79.5 µM
- TGI [24]: 98.2 µM
- TGI [25]: 80.2 µM
- TGI [26]: 75.8 µM
- TGI [27]: > 100 µM
- TGI [28]: > 100 µM
- TGI [30]: > 100 µM
- TGI [31]: > 100 µM
- TGI [32]: > 100 µM
- TGI [33]: > 100 µM
- TGI [34]: > 100 µM
- TGI [35]: > 100 µM
- TGI [36]: > 100 µM
- TGI [37]: > 100 µM
- TGI [38]: 53.2 µM
- TGI [39]: > 100 µM
- TGI [40]: > 100 µM
- TGI [41]: 53.9 µM
- TGI [42]: > 100 µM
- TGI [43]: > 100 µM
- TGI [44]: > 100 µM
- TGI [45]: > 100 µM
- TGI [46]: > 100 µM
- TGI [47]: > 100 µM
- TGI [68]: 68.2 µM
- TGI [48]: > 100 µM
- TGI [49]: 82.4 µM
- TGI [50]: > 100 µM
- TGI [51]: > 100 µM
- TGI [52]: > 100 µM
- TGI [53]: > 100 µM
- TGI [54]: > 100 µM
- TGI [55]: > 100 µM
- TGI [56]: > 100 µM
- TGI [57]: > 100 µM
- TGI [58]: > 100 µM

Compound: N#C/C(=C\c1c(Cl)cccc1Cl)c1ccccc1
- TGI [1]: 25.4 µM
- TGI [2]: > 100 µM
- TGI [3]: > 100 µM
- TGI [4]: > 100 µM
- TGI [5]: 15.9 µM
- TGI [6]: > 100 µM
- TGI [7]: > 59.5 µM
- TGI [8]: > 31.4 µM
- TGI [9]: > 100 µM
- TGI [10]: > 100 µM
- TGI [11]: > 39.5 µM
- TGI [12]: 40.9 µM
- TGI [13]: > 100 µM
- TGI [14]: 56 µM
- TGI [15]: 39.3 µM
- TGI [16]: > 58.5 µM
- TGI [17]: > 100 µM
- TGI [18]: > 65.9 µM
- TGI [19]: > 100 µM
- TGI [20]: > 100 µM
- TGI [21]: 78.5 µM
- TGI [22]: 11.9 µM
- TGI [23]: > 100 µM
- TGI [24]: > 100 µM
- TGI [25]: > 66.5 µM
- TGI [26]: > 100 µM
- TGI [27]: > 100 µM
- TGI [28]: > 100 µM
- TGI [29]: > 46.8 µM
- TGI [30]: > 100 µM
- TGI [31]: > 56.6 µM
- TGI [32]: > 100 µM
- TGI [33]: 19.9 µM
- TGI [34]: > 100 µM
- TGI [35]: 65.5 µM
- TGI [36]: > 66.8 µM
- TGI [37]: 21.8 µM
- TGI [38]: > 48.9 µM
- TGI [39]: > 69.5 µM
- TGI [40]: 9.53 µM
- TGI [41]: 25.7 µM
- TGI [42]: > 76.3 µM
- TGI [43]: > 87.9 µM
- TGI [44]: > 100 µM
- TGI [45]: 33.4 µM
- TGI [46]: 6.04 µM
- TGI [47]: > 68.5 µM
- TGI [68]: > 100 µM
- TGI [48]: > 31.3 µM
- TGI [49]: 7.76 µM
- TGI [50]: > 100 µM
- TGI [51]: 7.16 µM
- TGI [52]: > 96.3 µM
- TGI [53]: 11.8 µM
- TGI [54]: > 100 µM
- TGI [55]: > 100 µM
- TGI [56]: > 90.1 µM
- TGI [57]: 41.1 µM
- TGI [58]: > 100 µM
